Measurements reported in ChEMBL document CHEMBL5727000, “Carboxamide or sulfonamide substituted thiazoles and related derivatives as modulators for the orphan nuclear receptor ROR[γ]” (2019).
Blank lines part the entries; values can stand above or below the compound they belong to.

How the values were obtained:
[1] = (§1) RORgamma Gal4 Reporter Gene Assay (FF): Cells were incubated for additional 16 h before firefly (FF) luciferase activities were measured sequentially in the same cell extract using a Dual-Light-Luciferase-Assay system (Dyer et al., Anal. Biochem. 2000, 282:158). All experiments were done at least in triplicates.
[2] = as §1, with “(REN):” for “(FF):”, “renilla (REN)” for “firefly (FF)”

Compound: CC(C)(C)NS(=O)(=O)c1ccc(-c2oc(C(=O)NC3CCOCC3)nc2CC2CCCCC2)c2ccccc12
- IC50 [1]: 15.8 nM
- IC50 [2]: 12.6 nM

- IC50 [1]: 6.31 nM
- IC50 [2]: 6.31 nM
Compound: C[C@H](NS(=O)(=O)c1ccc(-c2sc(C(=O)N3CC4(C3)CS(=O)(=O)C4)nc2CC2CC2)c2ccccc12)C(F)(F)F

Compound: CC(C)(O)CNC(=O)c1nc(CC2CCCCC2)c(-c2ccc(S(N)(=O)=O)c(Cl)c2Cl)s1
- IC50 [1]: < 20000 nM
- IC50 [2]: < 20000 nM

Compound: CC(C)(C)NS(=O)(=O)c1ccc(-c2oc(C(=O)NC3CCS(=O)(=O)CC3)nc2CC2CCCCC2)c(Cl)c1Cl
- IC50 [1]: 3.98 nM
- IC50 [2]: 6.31 nM

Compound: CC(C)(O)CNC(=O)c1nc(C(=O)C2CCC(C)(C)CC2)c(-c2ccc(S(=O)(=O)NC(C)(C)C)c3ccccc23)s1
- IC50 [1]: 25.1 nM
- IC50 [2]: 31.6 nM

Compound: CC(C)(C)NS(=O)(=O)c1ccc(-c2sc(C(=O)NC3CCC3)[n+]([O-])c2CC2CCCCC2)c2ccccc12
- IC50 [1]: 31.6 nM
- IC50 [2]: 31.6 nM

Compound: CC1CCN(C(=O)c2nc(C(=O)N3CC4(CCS(=O)(=O)CC4)C3)oc2-c2ccc(S(=O)(=O)NC(C)(C)C)c3ccccc23)CC1
- IC50 [2]: 2510 nM

Compound: CC(C)(C)c1cc(-c2sc(C(=O)NC3CC(OC=O)C3)nc2CC2CCCCC2)nc(C(C)(C)C)n1 (centres undefined)
- IC50 [1]: 126 nM
- IC50 [2]: 126 nM

Compound: CC1CCN(C(=O)c2nc(C(=O)NCC(C)(C)O)sc2-c2ccc(S(=O)(=O)NCC(C)(C)O)c3ccccc23)CC1
- IC50 [2]: 1580 nM

Compound: CC(C)(C)NS(=O)(=O)c1ccc(-c2sc(C(=O)NC3CCC3)nc2CC2CCCCC2)c(OC(F)F)c1Cl
- IC50 [1]: 10 nM
- IC50 [2]: 5.01 nM

- IC50 [1]: 10 nM
- IC50 [2]: 6.31 nM
Compound: CC(C)(C)NS(=O)(=O)c1ccc(-c2sc(C(=O)NC3CCC3)nc2CC2CCCCC2)c(OC(F)(F)F)c1

Compound: CC(C)(C)c1cc(-c2sc(C(=O)NC3CCC3)[n+]([O-])c2CC2CCCCC2)cc(C2(C)CC2)c1
- IC50 [1]: 31.6 nM
- IC50 [2]: 25.1 nM

Compound: CC(C)(C)c1cc(-c2nc(C(N)=O)oc2CC2CCCCC2)cc(C(C)(C)C)c1
- IC50 [1]: < 20000 nM
- IC50 [2]: < 20000 nM

Compound: O=CO[C@H]1C[C@H](NC(=O)c2nc(CC3CCCCC3)c(-c3ccc(OC(F)(F)F)c4ccccc34)s2)C1
- IC50 [1]: 126 nM
- IC50 [2]: 126 nM

Compound: CC1CCN(C(=O)c2nc(C(=O)NCC(C)(C)O)sc2-c2ccc(S(=O)(=O)NCC(F)(F)F)c3ccccc23)CC1
- IC50 [2]: 39.8 nM

Compound: CC(C)(C)NS(=O)(=O)c1ccc(-c2sc(C(=O)NC3CCOCC3)nc2CC2CCCCC2)cc1C(F)(F)F
- IC50 [1]: 10 nM
- IC50 [2]: 5.01 nM

Compound: CCOC(=O)c1nc(Cc2ccccc2)c(-c2ccc(S(=O)(=O)NC(C)(C)C)c3ccccc23)s1
- IC50 [1]: 12.6 nM
- IC50 [2]: 10 nM

Compound: CC(C)(C)c1cc(-c2sc(C(=O)NC3CC(OC=O)C3)nc2CC2CCCCC2)nc(C2(C)CC2)n1 (centres undefined)
- IC50 [1]: 158 nM
- IC50 [2]: 200 nM

Compound: CC(C)(C)c1cc(-c2sc(S(=O)(=O)NC(=O)OCc3ccccc3)nc2CC2CCCCC2)cc(C2(C)CC2)c1
- IC50 [1]: < 20000 nM
- IC50 [2]: < 20000 nM

Compound: O=CO[C@H]1C[C@H](NC(=O)c2nc(CC3CCCCC3)c(-c3ccc(OCC(F)(F)F)c4ccccc34)s2)C1
- IC50 [1]: 316 nM
- IC50 [2]: 631 nM

- IC50 [1]: 5.01 nM
- IC50 [2]: 5.01 nM
Compound: C[C@H](NC(=O)c1cc(-c2sc(C(=O)NCC(C)(C)c3noc(=O)[nH]3)nc2CC2CCCCC2)cc(C2(C)CC2)c1)C(F)(F)F

Compound: CC(C)(O)CNC(=O)c1nc(CC2CCC2)c(-c2ccc(S(=O)(=O)NC(C)(C)C)c(Cl)c2OC(F)F)s1
- IC50 [1]: 31.6 nM
- IC50 [2]: 39.8 nM

- IC50 [1]: 398 nM
- IC50 [2]: 251 nM
Compound: CC(C)(C)c1cc(-c2nc(C(=O)N[C@H]3C[C@H](OC=O)C3)oc2CC2CCCCC2)cc(C2(C)CC2)c1

Compound: CC(C)(C)NS(=O)(=O)c1cnc(-c2sc(C(=O)N[C@H]3C[C@H](C(=O)O)C3)nc2CC2CCCCC2)nc1C(C)(C)C
- IC50 [1]: 200 nM
- IC50 [2]: 398 nM

Compound: COc1ccc(-c2sc(C(=O)N[C@H]3C[C@H](OC=O)C3)nc2CC2CCCCC2)c2ccccc12
- IC50 [1]: 251 nM
- IC50 [2]: 251 nM

Compound: O=C(NC1CCS(=O)(=O)CC1)c1nc(CC2CCCCC2)c(-c2ccc(C3(O)CCC3)c3ccccc23)s1
- IC50 [1]: 501 nM
- IC50 [2]: 631 nM

Compound: CC(C)(O)CN1CCN(C(=O)c2nc(CC3CCCCC3)c(-c3ccc(S(=O)(=O)NC(C)(C)C)c4ccccc34)s2)CC1
- IC50 [1]: 158 nM
- IC50 [2]: 126 nM

- IC50 [1]: 26.5 nM
Compound: CC(C)(C)NS(=O)(=O)c1ccc(-c2sc(C(=O)N[C@H]3C[C@H](C(=O)O)C3)nc2Cc2ccccc2)c2ccccc12

Compound: CC(C)(C)NS(=O)(=O)c1ccc(-c2oc(C(=O)N3CC4(CCS(=O)(=O)CC4)C3)nc2CC2CCCCC2)c2ccccc12
- IC50 [1]: 1260 nM

Compound: CC(C)(O)CNC(=O)c1nc(CC2CCCCC2)c(-c2ccc(S(=O)(=O)NC(C)(C)C)c(Cl)c2Cl)o1
- IC50 [1]: 39.8 nM
- IC50 [2]: 31.6 nM

Compound: CC(C)(C)NS(=O)(=O)c1ccc(-c2sc(C(=O)NC3CCOCC3)nc2CC2CCCCC2)cc1C(C)(C)C
- IC50 [1]: 15.8 nM
- IC50 [2]: 12.6 nM

Compound: CC(=O)NS(=O)(=O)c1nc(-c2cc(C(C)(C)C)cc(C(C)(C)C)c2)c(CC2CCCCC2)s1
- IC50 [1]: < 20000 nM
- IC50 [2]: < 20000 nM
